Test: Safety assessment: adverse events
Assay type: in vivo, Japanese patients
Excerpt: Safety assessments consisted of monitoring and recording of all AEs, including laboratory abnormalities and vital signs. DLTs were defined as an AE or a laboratory abnormality assessed as related to the study drug and occurring within the first 28 days of treatment (Cycle 1), as defined in Supplemental Table S1.

[1] = bid 400 mg N = 8, regardless of study drug relationship
[2] = qd 400 mg (n = 3), regardless of study drug relationship
[3] = qd 800 mg (n = 3), regardless of study drug relationship
[4] = qd 1000 mg (n = 8), regardless of study drug relationship

Cn1c(=O)n(-c2ccc(C(C)(C)C#N)cc2)c2c3cc(-c4cnc5ccccc5c4)ccc3ncc21 [BEZ235]
study drug-related SAE (1000 mg qd): grade 2 colitis | patients requiring dose reduction in Cycle 2 (1200 mg qd): two out of six | patients requiring dose interruption due to AEs (1400 mg qd): six | patients requiring dose reduction in early cycles (1400 mg qd): three | study drug-related SAE (1400 mg qd): grade 2 Pneumocystis jiroveci pneumonia | AEs Total, All grades [1]: 8 (100.0) n (%) | AEs Total, Grade ¾ [1]: 7 (87.5) n (%) | Alanine aminotransferase increased, All grades [1]: 4 (50.0) n (%) | Alanine aminotransferase increased, Grade ¾ [1]: 0 n (%) | Anxiety, All grades [1]: 2 (25.0) n (%) | Anxiety, Grade ¾ [1]: 0 n (%) | Aspartate aminotransferase increased, All grades [1]: 4 (50.0) n (%) | Aspartate aminotransferase increased, Grade ¾ [1]: 1 (12.5) n (%) | Blood alkaline phosphatase increased, All grades [1]: 2 (25.0) n (%) | Blood alkaline phosphatase increased, Grade ¾ [1]: 0 n (%) | Blood creatinine increased, All grades [1]: 3 (37.5) n (%) | Blood creatinine increased, Grade ¾ [1]: 0 n (%) | Cancer pain, All grades [1]: 3 (37.5) n (%) | Cancer pain, Grade ¾ [1]: 2 (25.0) n (%) | Cheilitis, All grades [1]: 3 (37.5) n (%) | Cheilitis, Grade ¾ [1]: 0 n (%) | Decreased appetite, All grades [1]: 7 (87.5) n (%) | Decreased appetite, Grade ¾ [1]: 1 (12.5) n (%) | Diarrhea, All grades [1]: 7 (87.5) n (%) | Diarrhea, Grade ¾ [1]: 1 (12.5) n (%) | Dry skin, All grades [1]: 4 (50.0) n (%) | Dry skin, Grade ¾ [1]: 0 n (%) | Dysphagia, All grades [1]: 3 (37.5) n (%) | Dysphagia, Grade ¾ [1]: 0 n (%) | Fatigue, All grades [1]: 5 (62.5) n (%) | Fatigue, Grade ¾ [1]: 1 (12.5) n (%) | Gamma-glutamyltransferase increased, All grades [1]: 2 (25.0) n (%) | Gamma-glutamyltransferase increased, Grade ¾ [1]: 0 n (%) | Haemoglobin decreased, All grades [1]: 4 (50.0) n (%) | Haemoglobin decreased, Grade ¾ [1]: 1 (12.5) n (%) | Hyperkalaemia, All grades [1]: 2 (25.0) n (%) | Hyperkalaemia, Grade ¾ [1]: 0 n (%) | Hypoalbuminaemia, All grades [1]: 4 (50.0) n (%) | Hypoalbuminaemia, Grade ¾ [1]: 1 (12.5) n (%) | Hyponatraemia, All grades [1]: 2 (25.0) n (%) | Hyponatraemia, Grade ¾ [1]: 1 (12.5) n (%) | Insomnia, All grades [1]: 4 (50.0) n (%) | Insomnia, Grade ¾ [1]: 0 n (%) | Lymphopenia, All grades [1]: 4 (50.0) n (%) | Lymphopenia, Grade ¾ [1]: 2 (25.0) n (%) | Malaise, All grades [1]: 2 (25.0) n (%) | Malaise, Grade ¾ [1]: 1 (12.5) n (%) | Nausea, All grades [1]: 7 (87.5) n (%) | Nausea, Grade ¾ [1]: 0 n (%) | Pyrexia, All grades [1]: 2 (25.0) n (%) | Pyrexia, Grade ¾ [1]: 0 n (%) | Rash, All grades [1]: 4 (50.0) n (%) | Rash, Grade ¾ [1]: 0 n (%) | Stomatitis, All grades [1]: 5 (62.5) n (%) | Stomatitis, Grade ¾ [1]: 0 n (%) | Thrombocytopenia, All grades [1]: 5 (62.5) n (%) | Thrombocytopenia, Grade ¾ [1]: 2 (25.0) n (%) | Urinary tract infection, All grades [1]: 2 (25.0) n (%) | Urinary tract infection, Grade ¾ [1]: 0 n (%) | Vomiting, All grades [1]: 4 (50.0) n (%) | Vomiting, Grade ¾ [1]: 0 n (%) | study drug-related SAE (bid dosing group, one patient): grade 4 diarrhea | patients with Grade 3 or 4 AEs (bid dosing, seven patients): 87.5% | study drug discontinuation due to AEs (bid group, one patient): 12.5% | grade 3 or 4 lymphopenia suspected to be study drug-related (bid group, two patients): 25.0% | grade 3 or 4 thrombocytopenia suspected to be study drug-related (bid group, two patients): 25.0% | deaths during the study period (including a 30-day follow-up, qd and bid): No patient died | AEs Total, All grades [2]: 3 (100.0) n (%) | AEs Total, Grade ¾ [2]: 2 (66.7) n (%) | Alanine aminotransferase increased, All grades [2]: 2 (66.7) n (%) | Alanine aminotransferase increased, Grade ¾ [2]: 0 n (%) | Blood alkaline phosphatase increased, All grades [2]: 1 (33.3) n (%) | Blood alkaline phosphatase increased, Grade ¾ [2]: 0 n (%) | Cancer pain, All grades [2]: 2 (66.7) n (%) | Cancer pain, Grade ¾ [2]: 1 (33.3) n (%) | Decreased appetite, All grades [2]: 2 (66.7) n (%) | Decreased appetite, Grade ¾ [2]: 0 n (%) | Diarrhea, All grades [2]: 2 (66.7) n (%) | Diarrhea, Grade ¾ [2]: 0 n (%) | Dysgeusia, All grades [2]: 0 n (%) | Dysgeusia, Grade ¾ [2]: 0 n (%) | Fatigue, All grades [2]: 1 (33.3) n (%) | Fatigue, Grade ¾ [2]: 0 n (%) | Leukopenia, All grades [2]: 0 n (%) | Leukopenia, Grade ¾ [2]: 0 n (%) | Lymphopenia, All grades [2]: 2 (66.7) n (%) | Lymphopenia, Grade ¾ [2]: 2 (66.7) n (%) | Nausea, All grades [2]: 3 (100.0) n (%) | Nausea, Grade ¾ [2]: 0 n (%) | Neutropenia, All grades [2]: 0 n (%) | Neutropenia, Grade ¾ [2]: 0 n (%) | Pyrexia, All grades [2]: 1 (33.3) n (%) | Pyrexia, Grade ¾ [2]: 0 n (%) | Rash, All grades [2]: 1 (33.3) n (%) | Rash, Grade ¾ [2]: 0 n (%) | Stomatitis, All grades [2]: 2 (66.7) n (%) | Stomatitis, Grade ¾ [2]: 0 n (%) | Thrombocytopenia, All grades [2]: 0 n (%) | Thrombocytopenia, Grade ¾ [2]: 0 n (%) | Vomiting, All grades [2]: 2 (66.7) n (%) | Vomiting, Grade ¾ [2]: 0 n (%) | AEs Total, All grades [3]: 3 (100.0) n (%) | AEs Total, Grade ¾ [3]: 1 (33.3) n (%) | Alanine aminotransferase increased, All grades [3]: 0 n (%) | Alanine aminotransferase increased, Grade ¾ [3]: 0 n (%) | Blood alkaline phosphatase increased, All grades [3]: 0 n (%) | Blood alkaline phosphatase increased, Grade ¾ [3]: 0 n (%) | Cancer pain, All grades [3]: 2 (66.7) n (%) | Cancer pain, Grade ¾ [3]: 0 n (%) | Decreased appetite, All grades [3]: 3 (100.0) n (%) | Decreased appetite, Grade ¾ [3]: 0 n (%) | Diarrhea, All grades [3]: 3 (100.0) n (%) | Diarrhea, Grade ¾ [3]: 0 n (%) | Dysgeusia, All grades [3]: 1 (33.3) n (%) | Dysgeusia, Grade ¾ [3]: 0 n (%) | Fatigue, All grades [3]: 2 (66.7) n (%) | Fatigue, Grade ¾ [3]: 0 n (%) | Leukopenia, All grades [3]: 1 (33.3) n (%) | Leukopenia, Grade ¾ [3]: 0 n (%) | Lymphopenia, All grades [3]: 1 (33.3) n (%) | Lymphopenia, Grade ¾ [3]: 1 (33.3) n (%) | Nausea, All grades [3]: 1 (33.3) n (%) | Nausea, Grade ¾ [3]: 0 n (%) | Neutropenia, All grades [3]: 1 (33.3) n (%) | Neutropenia, Grade ¾ [3]: 0 n (%) | Pyrexia, All grades [3]: 1 (33.3) n (%) | Pyrexia, Grade ¾ [3]: 0 n (%) | Rash, All grades [3]: 0 n (%) | Rash, Grade ¾ [3]: 0 n (%) | Stomatitis, All grades [3]: 2 (66.7) n (%) | Stomatitis, Grade ¾ [3]: 0 n (%) | Thrombocytopenia, All grades [3]: 1 (33.3) n (%) | Thrombocytopenia, Grade ¾ [3]: 1 (33.3) n (%) | Vomiting, All grades [3]: 1 (33.3) n (%) | Vomiting, Grade ¾ [3]: 0 n (%) | AEs Total, All grades [4]: 8 (100.0) n (%) | AEs Total, Grade ¾ [4]: 4 (50.0) n (%) | Alanine aminotransferase increased, All grades [4]: 0 n (%) | Alanine aminotransferase increased, Grade ¾ [4]: 0 n (%)

From article PMC6394493 (Cancer Chemotherapy and Pharmacology, 2018)
